Measured values: patent publication US10933135B2, “Methods for the treatment of cardiac hypertrophy” (UNIVERSITY OF CINCINNATI, priority 2016, dated 2021)
Where “and” joins values, the source holds several entries; their conditions need not be identical. Equal entries are not always repeated. Entries after “also recorded” stand apart in the source; their conditions may differ.

Key:
[1] = biological target: HuR-RNA binding (Homo sapiens, UniProt Q15717); test: Plasmonic nanoparticle LSPR assay of HuR-RNA binding; conditions: gold nanoparticle arrays, target RNA SEQ ID NO 7, recombinant HuR protein
Experimental: As shown schematically in FIG. 9A-B, a pattern for either microfluidic channels or a spot plate is first made on the substrate using photolithography. Next, the hole mask procedure is carried out on top of the patterned photoresist to make the desired nanoparticle array. Briefly, this procedure involves spin coating a layer of poly(methylmethacrylate) (PMMA) followed by a layer of poly(diallyldimethylammonium chloride) (PDDA). Next, polystyrene spheres of a desired size are drop-coated onto the top of the polymer layers and a layer of 5 nm of gold is deposited over the whole assembly. After removal of the polystyrene spheres by tape-stripping, the masks are subjected to oxygen plasma etching to generate holes the same size as the polystyrene spheres. Metals are then deposited into these holes and in the last step, both the PMMA/PDDA polymer mask and the photoresist are removed using acetone, to create nanoparticle arrays in a desired pattern on the substrate. […] The PDMS layer was used to create the channels for the microfluidic devices and to prevent solution migration from spot to spot in the spot plates.
Next a target RNA strand containing a DNA hybridizing region, which binds via base pair matching with the ssDNA on the nanoparticle, and a hairpin loop containing a HuR target binding site. […] Last, the HuR protein is added and binds to its target site within the RNA hairpin loop. […]

[2] = tested on: NFAT; test: NFAT-luciferase reporter assay in NRVMs; type: cell-based, rat; conditions: for effect on basal NFAT activity: inhibitor at its IC50, without PE; for NFAT reporter activity, fold vs. vehicle control: 24 hours
Experimental: NRVMs were transfected with 75 ng per well (in a 96-well plate) of NFAT-luciferase reporter plasmid acquired from AddGene (51941) (B. J. Wilkins et al., Calcineurin/NFAT coupling participates in pathological, but not physiological, cardiac hypertrophy, Circ. Res. 94 (2004) 110-118. doi:10.1161/01.RES.0000109415.17511.18, the entire disclosure of which is incorporated herein by this citation). 48 hours after transfection, cells were treated with 10 μM PE for 24 hours to induce NFAT reporter activity. To quantify luciferase reporter expression, cells were rinsed with sterile PBS and then lysed with 50 μL Cell Lysis Buffer (Promega) for 5 min at room temperature, followed by addition of 100 μL luciferase assay reagent (Promega); luminescence was read immediately on the BioTek Cytation 3 image reader. HuR inhibitors were previously identified by Wu et. al. (X. Wu et al., Identification and Validation of Novel Small Molecule Disruptors of HuR-mRNA Interaction, ACS Chem. Biol. (2015) 150317154550000-9. doi:10.1021/cb500851u. the entire disclosure of which is incorporated herein by this citation), and used here as described.

[3] = tested on: pressure overload (aortic constriction) mouse model of heart failure; test: Aortic constriction (TAC) pressure overload mouse model of cardiac hypertrophy and heart failure; type: in vivo; conditions: TAC mice
Experimental: FIG. 7A-C. KH-3 reduces ventricular dilation and improves ejection fraction in a pressure overload (aortic constriction) mouse model of heart failure. Mice (N=10) were subjected to aortic constriction (TAC) to induce cardiac hypertrophy and heart failure. After week 4, they were randomized to receive either KH-3 (50 mg/kg 3×/week) or Vehicle (5 mice to each group). KH-3 is a small molecule inhibitor of HuR-mRNA interaction that is available from.
FIG. 8A-C. KH-3 reduces ventricular dilation and improves ejection fraction in a pressure overload (aortic constriction) mouse model of heart failure.

[4] = tested on: RCAN1; test: Expression of the NFAT target gene RCAN1 by qRT-PCR in NRVMs; type: cell-based, rat; conditions: PE treated
Experimental: (§1) RNA was isolated using a Macherey-Nagel NucleoSpin RNA kit and cDNA was synthesized using a BioScript All-in-One cDNA Synthesis SuperMix (Biotool). Samples were run on Stratagene Mx3005P (Agilent Technologies) using SYBR Green qPCR Master Mix (Biotool) to assess levels of GAPDH, ANF (atrial natriuretic factor), and RCAN1 (Regulator of Calcineurin 1). Results were analyzed using the ΔΔCt method (K. J. Livak, T. D. Schmittgen, Analysis of relative gene expression data using real-time quantitative PCR and the 2(-Delta Delta C(T)) Method, Methods. 25 (2001) 402-408. doi:10.1006/meth.2001.1262, the entire disclosure of which is incorporated herein by this citation). Primers are as listed: […]

[5] = tested on: ANF; test: ANF (hypertrophic marker gene) expression by qRT-PCR in NRVMs; type: cell-based, rat; conditions: vehicle+PE, 24 hr
Experimental: as §1

[6] = tested on: HuR; test: HuR nucleo-cytoplasmic translocation by immunostaining in NRVMs; type: cell-based, rat; conditions: for HuR cytoplasmic translocation, fluorescent intensity ratio: agonist alone (PE 10 μM or AngII 100 nM), within 15 minutes (printed 15 hr)
Source text: All antibodies were made up in 0.6% BSA in PBS. For wheat germ agglutinin (WGA) staining, a Texas Red-X conjugate was used per manufacturer's instructions (ThermoFisher). […]

[7] = tested on: neonatal rat ventricular myocytes (NRVMs); test: Hypertrophic cell growth of NRVMs, cell area by WGA staining; type: cell-based; conditions: 10 μM PE for 24 hr, vs vehicle treated control cells
Source text: Neonatal rat ventricular myocytes (NRVMs) were isolated using collagenase digestion and adhesion differential from fibroblasts as described ([…]. Moore-Morris, S. Lange, Isolation and culture of neonatal mouse cardiomyocytes, J Vis Exp. (2013) e50154-e50154. doi:10.3791/50154, the entire disclosure of which is incorporated herein by this citation). Briefly, Sprague Dawley neonatal rats (1-2 days old) (Taconic) were decapitated and the hearts were isolated. Following removal of the atria, the ventricles were cut into small pieces and digested first in 0.05% trypsin/EDTA (Corning) overnight, then in collagenase II (Gibco) for 30 minutes. Cells were then spun at 100×g followed by a 40 minute pre-plating process on non-treated plates to allow the fibroblasts to adhere. The non-adherent NRVMs were then transferred to cell culture-treated dishes in MEM alpha media (Gibco) with 10% FBS. […] All slides were imaged with the BioTek Cytation 3 image reader and quantitative assessment of HuR translocation was measured as the ratio of cytoplasmic to nuclear fluorescent intensity (adjusted for mean background fluorescence and integrated area) using ImageJ.

[8] = tested on: PKC; test: PKC substrate phosphorylation in NRVMs; type: cell-based, rat; conditions: data not shown
[9] = inhibitor at its IC50 simultaneously with PE
[10] = 50 mg/kg 3×/week from week 4, vs Vehicle

Chain of HuR-RNA binding (Q15717 whole entry): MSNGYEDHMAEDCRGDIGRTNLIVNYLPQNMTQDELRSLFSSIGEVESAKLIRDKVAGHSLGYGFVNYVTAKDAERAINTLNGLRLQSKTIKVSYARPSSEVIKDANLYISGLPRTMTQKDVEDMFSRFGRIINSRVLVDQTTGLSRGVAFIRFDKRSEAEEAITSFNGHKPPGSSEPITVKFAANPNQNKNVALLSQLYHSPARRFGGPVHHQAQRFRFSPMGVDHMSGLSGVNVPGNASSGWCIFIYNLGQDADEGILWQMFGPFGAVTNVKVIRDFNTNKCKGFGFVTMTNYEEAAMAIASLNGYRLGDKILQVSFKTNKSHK

CCN(CC)C(=O)CC(c1cc(OC)c(OC)c(OC)c1)c1c(OC)cc(OC)c2c(-c3ccccc3)cc(=O)oc12 (centres unmarked) [CMLD-1]
leftward LSPR shift (disruption of HuR-RNA binding) [1]: 10 nm | effect on basal NFAT activity [2]: no significant effect | NFAT reporter activity, fold vs. vehicle control [2, 9]: 1.19±0.30 fold

COc1ccc(C(CC(=O)N2CCCC2)c2c(OC)cc(OC)c3c(-c4ccccc4)cc(=O)oc23)cc1 (centres unmarked) [CMLD-2]
effect on basal NFAT activity [2]: no significant effect | NFAT reporter activity, fold vs. vehicle control [2, 9]: 1.30±0.14 fold

CC(C)(C)c1ccc(S(=O)(=O)Nc2ccc3sc(/C=C/C(=O)NO)cc3c2)cc1 [KH-3]
cardiac hypertrophy as heart weight to body weight [3]: strong trend toward a reduction in cardiac hypertrophy | cardiac hypertrophy as heart weight to tibia length ratio [3]: strong trend toward a reduction in cardiac hypertrophy | left ventricle (LV) diameter [3, 10]: blunts further increases | left ventricle end diastolic volume (LV-EDV) [3, 10]: preventing further increases | left ventricle end systolic volume (LV-ESV) [3, 10]: preventing further increases | cardiac function as measured by ejection fraction ([3]; pressure overload-induced hypertrophy): strong trend toward improving cardiac function

CNC[C@H](O)c1cccc(O)c1 [PE, phenylephrine]
RCAN1 expression fold-induction [4]: 4.43±0.77 fold-induction | ANF expression fold-induction [5]: 5.4±1.4 fold-induction | HuR translocation, ratio of cytoplasmic to total cell fluorescent intensity ([6]; 24 hr PE, vehicle control 0.71±0.04): 1.82±0.08 | HuR cytoplasmic translocation, fluorescent intensity ratio ([6]; vehicle control 0.71±0.04): 1.05±0.06 | fold increase in cell area/size [7]: 1.29±0.08 fold and 1.39±0.07 fold | NFAT reporter activity, fold vs. vehicle control ([2]; PE alone 10 μM): 5.02±0.98 fold

CCCCCCCCCCCCCC(=O)O[C@@H]1[C@@H](C)[C@@]2(O)[C@@H](C=C(CO)C[C@]3(O)C(=O)C(C)=C[C@@H]23)[C@@H]2C(C)(C)[C@]12OC(C)=O [PMA]
HuR translocation after direct PKC activation ([6]; 2 μM): lack of HuR translocation

C[S+]([O-])c1ccc(-c2nc(-c3ccncc3)c(-c3ccc(F)cc3)[nH]2)cc1 (centres unmarked) [SB203580]
HuR translocation, fluorescent intensity ratio ([6]; p38 inhibitor (10 μM) + AngII): 0.76±0.07 | HuR translocation, fluorescent intensity ratio ([6]; p38 inhibitor (10 μM) + PE, PE alone 1.05±0.06): 0.68±0.08

COc1ccc2c(c[n+](C)c3c4cc5c(cc4ccc23)OCO5)c1OC [chelerythrine]
PKC substrate phosphorylation [8]: a reduction of PKC substrate phosphorylation | effect on PE/AngII-mediated HuR translocation ([6]; PKC inhibitor 10 μM): had no effect on HuR translocation; also recorded: shows a trend to enhance HuR translocation

angiotensin II [AngII, angiotensin receptor AT1 agonist]
HuR cytoplasmic translocation, fluorescent intensity ratio ([6]; vehicle control 0.71±0.04): 1.06±0.04
